The test system of assay [1] is NF-κB pathway in THP1-Dual STING reporter cells. Description: STING THP1 Reporter Assay, NF-κB pathway (SEAP). The assay is classed as cell-based, human. The following applies: 100% = 100 μM cGAMP. The text has this:
(§1) THP1-Dual™ cells were derived from the human THP-1 monocyte cell line by stable integration of two inducible reporter constructs. To this end, THP1-Dual™ cells allow the simultaneous study of the NF-κB pathway, by monitoring the activity of SEAP, and the IRF pathway by assessing the activity of a secreted luciferase (Lucia). Both reporter proteins are readily measurable in the cell culture supernatant when using QUANTI-Blue™, a SEAP detection reagent, and QUANTI-Luc™, a luciferase detection reagent.
(§2) THP1-Dual™ cells induce the activation of NF-κB in response to STING agonists. They also trigger the IRF pathway upon stimulation with STING agonists, such as cGAMP. Here, the THP-1-Dual cells were used to assess STING binders for function on the cellular level.
(§3) Serial dilutions of compounds in DMSO were added to low volume 384 well plates at 100 nl/well using an ECHO acoustic dispenser (Labcyte, model 550) to achieve final starting concentration of 100 μM in cell suspension. […] One column of the plate was reserved for treatment with cGAMP at 100 μM for 100% activation calculation and one column for no treatment (DMSO only) for baseline activation. Plates were then incubated in 37° C. incubator at 5% CO2 for 20 hours.
(§4) In the SEAP assay, 5 μl of 2× QuantiBlue (Invivogen, cat #Rep-qb2) is added to 384 well black plates seeded with THP1 cells and incubated at 37° C. for 2 hours. Plates were read on the Envision (Perkin Elmer) at 620 nm wavelength (OD620). In the luciferase assay, 5 μl of Quantiluc (Invivogen, Rep-qlc2) is added to white 384 well plates seeded with THP1 cells and read at 5 minutes on the Envision (Perkin Elmer) using a luminescence protocol (RLU). For both cell lines, 100% activation was determined by value (RLU) of THP-1 Dual STING cells stimulated with 100 μM cGAMP (Invivogen, cat #TLRL-NACGA23-5).

Assay [2] deals with IRF pathway in THP1-Dual STING reporter cells. Description: STING THP1 Reporter Assay, IRF pathway (secreted Lucia luciferase). The assay is classed as cell-based, human.
Text: as §1, §2, §3, §4

The target of assay [3] is T1, STING AQ: His-TVMV-S-hSTING(155-341)-G230A-R293Q (Homo sapiens, UniProt Q86WV6, G230A/H232R/R293Q).
T1 construct: STING AQ: His-TVMV-S-hSTING(155-341)-G230A-R293Q
T1 sequence (Q86WV6 with tags, fused parts or gaps G230A/H232R/R293Q): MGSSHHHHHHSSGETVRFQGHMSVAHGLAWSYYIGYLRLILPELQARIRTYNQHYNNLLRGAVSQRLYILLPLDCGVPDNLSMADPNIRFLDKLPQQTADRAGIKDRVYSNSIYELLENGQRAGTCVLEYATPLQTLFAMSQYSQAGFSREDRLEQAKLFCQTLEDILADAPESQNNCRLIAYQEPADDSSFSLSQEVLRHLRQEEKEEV
Description: STING HTRF Binding Assay, STING AQ. As to conditions: 20 nM His-tagged STING cytoplasmic domain, 40 nM fluorescein-labeled cGAMP analog probe, one hour; read-out: HTRF Binding Assays IC50 (μM) STING AQ. As for the experimental part: (§5) A time resolved FRET-based competition binding assay was used to assess test article binding to STING WT and STING AQ. His-tagged STING cytoplasmic domain (WT or AQ) at a concentration of 20 nM was incubated with 2.5 nM Tb-labeled anti-His antibody, test compound, and fluorescein-labeled cGAMP analog probe (BioLog cat. no. C195) at a concentration of 200 nM (STING WT) or 40 nM (STING AQ) in PBS containing 0.005% Tween-20 and 0.1% BSA for one hour. Fluorescence at 495 nm and 520 nm was measured using an EnVision microplate reader to quantify FRET between Tb-labeled anti-His antibody and fluorescein-labeled probe. Background was defined as the signal obtained in the absence of STING protein, and background subtracted FRET ratios were normalized to the maximum signal obtained in the absence of test compound. These values were converted to a percent inhibition. Percent inhibition was determined for test compounds at 11 concentrations. The IC50, defined as the concentration of competing test compound needed to reduce specific binding of the probe by 50%, was calculated using the 4 parameter logistic equation to fit the data

In assay [4] the target is T2, STING WT: His-TVMV-S-hSTING(155-341)-H232R (Homo sapiens, UniProt Q86WV6, H232R).
T2 construct: STING WT: His-TVMV-S-hSTING(155-341)-H232R
T2 sequence (Q86WV6 with tags, fused parts or gaps H232R): as the sequence (Q86WV6 with tags, fused parts or gaps G230A/H232R/R293Q) above, with A99G, Q162R counted along it
Description: STING HTRF Binding Assay, STING WT. As to conditions: 20 nM His-tagged STING cytoplasmic domain, 200 nM fluorescein-labeled cGAMP analog probe, one hour; read-out: HTRF Binding Assays IC50 (μM) STING WT. The method, then: as §5

Setting [5] is: THP1-Dual cells, 10% human plasma, 20 hours, SEAP, read-out: THP1 Reporter Assays EC50 (μM) NFkB.
Where [6] appears, read: THP1-Dual cells, 10% human plasma, 20 hours, luciferase; 100% = 100 μM cGAMP; read-out: THP1 Reporter Assays EC50 (μM) IRF3.
[7] abbreviates: Homo sapiens, THP1-Dual, 20 h, read-out: THP1 Reporter Assays EC50 (μM) NFkB, THP1-Dual cells, 10% human plasma, 20 hours, SEAP.
Where [8] appears, read: Homo sapiens, THP1-Dual, 20 h, THP1-Dual cells, 10% human plasma, 20 hours, luciferase; 100% = 100 μM cGAMP; read-out: THP1 Reporter Assays EC50 (μM) IRF3.

Where two headings read alike, the source gives them in different places. Bounds are passed on as bounds.

For `NC(=O)c1cc([C@@H]2O[C@@H]3COP(=O)(S)O[C@H]4[C@@H](F)[C@H](n5cnc6c(N)ncnc65)O[C@@H]4COP(=O)(S)O[C@H]3[C@H]2O)[nH]n1` (single isomer, unassigned) [Example 6-4], the concentration for a half-maximal effect (EC50) in assay [1] (setting [5]) and in assay [2] (setting [6]) was > 100 µM each time. The IC50 in assay [3] stood at 0.19 µM; in assay [4], 3.03 µM.

For `Nc1ncnc2c1ncn2[C@@H]1O[C@@H]2COP(=O)(O)O[C@H]3[C@@H](F)[C@H](n4cnc5c4ncn4ccnc54)O[C@@H]3COP(=O)(O)O[C@H]2[C@H]1O` [Example 20], the EC50 is 13.6 µM in assay [1] (setting [7]) and 3.71 µM in assay [2] (setting [8]). In addition, the IC50 stood at 0.01 µM in assay [3] and 0.04 µM in assay [4].

Take `Nc1ncnc2c1ncn2[C@@H]1O[C@@H]2COP(=O)(S)O[C@H]3[C@@H](O)[C@H](n4cnc5c(=O)n6ccnc6[nH]c54)O[C@@H]3COP(=O)(S)O[C@H]2[C@H]1F` (single isomer, unassigned) [Example 1-1]: the EC50 in assay [1] (setting [5]) came out at 0.94 µM; in assay [2] (setting [6]), 0.38 µM. Also, the IC50 is 0.01 µM in assay [3] and 0.02 µM in assay [4].

With `NC(=O)c1cccc2c1nnn2[C@@H]1O[C@@H]2COP(=O)(S)O[C@H]3[C@@H](F)[C@H](n4cnc5c(N)ncnc54)O[C@@H]3COP(=O)(S)O[C@H]2[C@H]1F` (single isomer, unassigned) [Example 4-3], the concentration for a half-maximal effect (EC50) in assay [1] (setting [5]) and in assay [2] (setting [6]) was > 100 µM each time. The concentration for half-maximal inhibition (IC50) in assay [3] stood at 0.39 µM; in assay [4], 12 µM.

Take `NC(=O)c1cccc2c1nnn2[C@@H]1O[C@@H]2COP(=O)(O)O[C@H]3[C@@H](F)[C@H](n4cnc5c4ncn4ccnc54)O[C@@H]3COP(=O)(O)O[C@H]2[C@H]1F` [Example 9]: the EC50 in assay [1] (setting [7]) and in assay [2] (setting [8]) was > 100 µM in each case. Also, the 50% inhibitory concentration (IC50) in assay [3] amounted to 0.42 µM; in assay [4], 84.1 µM.

As for `Nc1ncnc2c1ncn2[C@@H]1O[C@@H]2COP(=O)(S)O[C@H]3[C@@H](O)[C@H](n4cnc5c4ncn4ncnc54)O[C@@H]3COP(=O)(O)O[C@H]2[C@H]1F` (single isomer, unassigned) [Example 10-1], the half-maximal effective concentration (EC50) in assay [1] (read-out: THP1 Reporter Assays EC50 (μM) NFkB, THP1-Dual cells, 10% human plasma, 20 hours, SEAP) was > 100 µM; in assay [2] (read-out: THP1 Reporter Assays EC50 (μM) IRF3; THP1-Dual cells, 10% human plasma, 20 hours, luciferase; 100% = 100 μM cGAMP) it was > 100 µM. Besides, the IC50 in assay [3] was 0.04 µM; in assay [4], 2.5 µM.

Regarding `NC(=O)c1cc([C@@H]2O[C@@H]3COP(=O)(S)O[C@H]4[C@@H](F)[C@H](n5cnc6c(N)ncnc65)O[C@@H]4COP(=O)(S)O[C@H]3[C@H]2O)[nH]n1` (single isomer, unassigned) [Example 6-3], the concentration giving a half-maximal response (EC50) in assay [1] (setting [5]) and in assay [2] (setting [6]) was > 100 µM each time. The IC50 in assay [3] is 16.2 µM; in assay [4], > 100 µM.

`NC(=O)c1cc([C@@H]2O[C@@H]3COP(=O)(S)O[C@H]4[C@@H](F)[C@H](n5cnc6c(N)ncnc65)O[C@@H]4COP(=O)(S)O[C@H]3[C@H]2O)[nH]n1` (single isomer, unassigned) [Example 6-2]: the concentration giving a half-maximal response (EC50) in assay [1] (setting [5]) and in assay [2] (setting [6]) was > 100 µM throughout. The results for the 50% inhibitory concentration (IC50) in assay [3] and in assay [4] were 5.75 µM and 88.6 µM, respectively.

The values above are taken from US11660311B2, “Cyclic dinucleotides as anticancer agents” (priority 2017, dated 2023).
